Measurements published in article PMC6768323, “Adverse Maternal, Fetal, and Postnatal Effects of Hexafluoropropylene Oxide Dimer Acid (GenX) from Oral Gestational Exposure in Sprague-Dawley Rats” (Environmental Health Perspectives, 2019).

Columns and labels:
Sprague-Dawley rats = settings: cited from earlier work
F1 Sprague-Dawley rats = test: Pilot postnatal study, GD14-18 oral maternal dosing; assay type: in vivo
Description: A single-dose level pilot study utilizing time-mated SD rats was conducted to examine the potential postnatal effects of in utero exposure to HFPO-DA from a similar dosing interval to the fetal studies (Figure 1B). The study consisted of dams exposed to oral daily dosing with either water vehicle or 125mg/kg HFPO-DA ( n=3 for each) from GD14–18. […] Dams gave birth naturally beginning on the morning of GD22 [i.e., postnatal day (PND) 0]. On PND2 all pups were sexed, weighed, and anogenital distance (AGD) was measured using a Leica MZ6 stereomicroscope (Leica Microsystems) fitted with an ocular micrometer. On PND13, the offspring were sexed, weighed, and evaluated for retention of female-like nipples/areolae. On PND27, the dams were euthanized, uterine implantation sites were scored, pups were weaned to two animals per cage by sex and treatment group, and food was changed to NTP2000 rodent diet. Beginning on PND31 for female offspring and PND41 for male offspring, individuals were evaluated daily for markers of pubertal onset, vaginal opening (VO) for females and balano-preputial separation (BPS) for males.
Beginning at PND128, adult F1 females were weighed, euthanized via decapitation, and examined via necropsy for any reproductive tract malformations and tissue weights were collected for uterus, paired ovaries, liver, paired kidneys, and visceral adipose tissue. Similarly, beginning at PND146 adult F1 males were weighed, euthanized, and examined for reproductive tract malformations and weights were collected for all relevant reproductive tissues. Male necropsy included weights of glans penis, ventral prostate, paired seminal vesicles, paired testes, paired epididymides, levator ani–bulbocavernosus (LABC), paired bulbourethral (Cowper’s) glands, paired kidneys, visceral adipose tissue, and epididymal adipose tissue. […] Total sperm counts in epididymal sections were measured using a Multisizer 3 Coulter counter (Beckman Coulter).

[1] = adult F1 female, 125 mg/kg/d, individual means
[2] = adult F1 female, 125 mg/kg/d, litter means
[3] = adult F1 male, 125 mg/kg/d, individual means
[4] = adult F1 male, 125 mg/kg/d, litter means

For O=C(O)C(F)(OC(F)(F)C(F)(F)C(F)(F)F)C(F)(F)F (centres unmarked) [HFPO-DA, Hexafluoropropylene oxide dimer acid], the NOAEL (Sprague-Dawley rats; ref Caverly Rae et al. 2015) is listed as 1 mg/kg per day, the “upper dose tolerated in the rat” value (Sprague-Dawley rats; ref Caverly Rae et al. 2015) is listed as 500 mg/kg per day and the “NOAEL, prenatal developmental toxicity study” value (Sprague-Dawley rats; ref DuPont 2010) is listed as 10 mg/kg per day. For the same compound, the “dose overtly toxic to the dam” value (Sprague-Dawley rats; ref DuPont 2010) was 1,000 mg/kg per day, the “viable pups per litter versus control dams” value (F1 Sprague-Dawley rats; 125 mg/kg) was “equal numbers of viable pups” and the pup survival (F1 Sprague-Dawley rats; 125 mg/kg GD14-18) was “no effect on pup survival”. The “Female AGD on PND2” value (F1 Sprague-Dawley rats; 125 mg/kg/d, individual means) was 1.5 ± 0.0 mm, the “Female BW at VO” value (F1 Sprague-Dawley rats; 125 mg/kg/d, individual means) was 123.4 ± 2.3 g and the “Female BW on PND27” value (F1 Sprague-Dawley rats; 125 mg/kg/d, individual means) was 79.1 ± 1.4 g. The “Female NR on PND13” value (F1 Sprague-Dawley rats; 125 mg/kg/d, individual means) was 12.0 ± 0.0, the “Female pup BW on PND2” value (F1 Sprague-Dawley rats; 125 mg/kg/d, individual means) was 7.5 ± 0.1 g and the “Female pup BW on PND13” value (F1 Sprague-Dawley rats; 125 mg/kg/d, individual means) was 28.7 ± 0.3 g. For the same compound, the “Male AGD on PND2” value (F1 Sprague-Dawley rats; 125 mg/kg/d, individual means) was 3.7 ± 0.1 mm, the “Male BW at PPS” value (F1 Sprague-Dawley rats; 125 mg/kg/d, individual means) was 211.4 ± 3.7 g and the “Male BW on PND27” value (F1 Sprague-Dawley rats; 125 mg/kg/d, individual means) was 81.1 ± 1.6 g. For the same compound, the “Male NR on PND2” value (F1 Sprague-Dawley rats; 125 mg/kg/d, individual means) was 0.1 ± 0.1, the “Male pup BW on PND2” value (F1 Sprague-Dawley rats; 125 mg/kg/d, individual means) was 7.8 ± 0.1 g and the “Male pup BW on PND13” value (F1 Sprague-Dawley rats; 125 mg/kg/d, individual means) was 29.3 ± 0.3 g. The “Dam BW GD14” value (F1 Sprague-Dawley rats; 125 mg/kg/d, litter means) was 325.5 ± 5.2 g, the “Dam BW GD18” value (F1 Sprague-Dawley rats; 125 mg/kg/d, litter means) was 354.9 ± 9.0 g and the “Dam BW gain” value (F1 Sprague-Dawley rats; 125 mg/kg/d, litter means) was 29.4 ± 6.0 g. The “Female AGD on PND2” value (F1 Sprague-Dawley rats; 125 mg/kg/d, litter means) was 1.5 ± 0.1 mm, the “Female BW at VO” value (F1 Sprague-Dawley rats; 125 mg/kg/d, litter means) was 124.3 ± 4.2 g and the “Female BW on PND27” value (F1 Sprague-Dawley rats; 125 mg/kg/d, litter means) was 78.2 ± 3.5 g. The “Female NR on PND13” value (F1 Sprague-Dawley rats; 125 mg/kg/d, litter means) was 12.0 ± 0.0, the “Female pup BW on PND2” value (F1 Sprague-Dawley rats; 125 mg/kg/d, litter means) was 7.5 ± 0.1 g and the “Female pup BW on PND13” value (F1 Sprague-Dawley rats; 125 mg/kg/d, litter means) was 28.7 ± 0.1 g. The “Male AGD on PND2” value (F1 Sprague-Dawley rats; 125 mg/kg/d, litter means) was 3.7 ± 0.1 mm, the “Male BW at PPS” value (F1 Sprague-Dawley rats; 125 mg/kg/d, litter means) was 214.6 ± 8.0 g and the “Male BW on PND27” value (F1 Sprague-Dawley rats; 125 mg/kg/d, litter means) was 83.3 ± 4.7 g. The “Male NR on PND2” value (F1 Sprague-Dawley rats; 125 mg/kg/d, litter means) was 0.1 ± 0.1, the “Male pup BW on PND2” value (F1 Sprague-Dawley rats; 125 mg/kg/d, litter means) was 7.8 ± 0.1 g and the “Male pup BW on PND13” value (F1 Sprague-Dawley rats; 125 mg/kg/d, litter means) was 29.5 ± 0.5 g. For the same compound, the No. implants (F1 Sprague-Dawley rats; 125 mg/kg/d, litter means) was 13.0 ± 1.0, the “No. pups on PND2” value (F1 Sprague-Dawley rats; 125 mg/kg/d, litter means) was 12.7 ± 0.7 and the “Post-implantation loss on PND2” value (F1 Sprague-Dawley rats; 125 mg/kg/d, litter means) was 2.2 ± 2.2%. For the same compound, the “adult female AGD and liver weight” value (F1 Sprague-Dawley rats; 125 mg/kg, individual basis) was “significantly smaller AGD and lower liver weight”, the “weights of right, left, paired testes, right, left, paired epididymides, epididymal adipose tissue” value (F1 Sprague-Dawley rats; 125 mg/kg, individual basis) was “significantly lower tissue weights” and the “female offspring body weight (PND2, PND27, at VO)” value (F1 Sprague-Dawley rats; 125 mg/kg, individual pup basis) was “significantly lower than controls”. For the same compound, the “adult female necropsy end points” value (F1 Sprague-Dawley rats; 125 mg/kg, litter means basis) was “no significant differences”, the “end points measured through the onset of puberty” value (F1 Sprague-Dawley rats; 125 mg/kg, litter means basis) was “no significant differences” and the “right epididymis tissue weight, adult males” value (F1 Sprague-Dawley rats; 125 mg/kg, litter means basis) was “significantly lower”. It also gave an AGD (F1 Sprague-Dawley rats; [1]) of 16.7 ± 0.7 mm, a Body weight (F1 Sprague-Dawley rats; [1]) of 370.3 ± 12.3 g and a Liver (F1 Sprague-Dawley rats; [1]) of 11.3 ± 0.3 g. It also gave a Paired kidneys (F1 Sprague-Dawley rats; [1]) of 2.1 ± 0.1 g, a Paired ovaries (F1 Sprague-Dawley rats; [1]) of 123.2 ± 3.6 mg and a Uterus (F1 Sprague-Dawley rats; [1]) of 635.6 ± 48.9 mg. For the same compound, the Visceral adipose tissue (F1 Sprague-Dawley rats; [1]) was 25.2 ± 2.4 g, the AGD (F1 Sprague-Dawley rats; [2]) was 16.8 ± 0.5 mm and the Body weight (F1 Sprague-Dawley rats; [2]) was 374.0 ± 25.0 g. The Liver (F1 Sprague-Dawley rats; [2]) was 11.4 ± 0.5 g, the Paired kidneys (F1 Sprague-Dawley rats; [2]) was 2.1 ± 0.1 g and the Paired ovaries (F1 Sprague-Dawley rats; [2]) was 122.5 ± 8.6 mg. For the same compound, the Uterus (F1 Sprague-Dawley rats; [2]) was 635.4 ± 74.3 mg, the Visceral adipose tissue (F1 Sprague-Dawley rats; [2]) was 25.1 ± 4.6 g and the Body weight (F1 Sprague-Dawley rats; [3]) was 676.5 ± 10.6 g. The Cauda sperm (F1 Sprague-Dawley rats; [3]) was 159.7 ± 4.7 106, the Corpus/caput sperm (F1 Sprague-Dawley rats; [3]) was 72.6 ± 2.3 106 and the Epididymal adipose tissue (F1 Sprague-Dawley rats; [3]) was 7.8 ± 0.5 g. The Glans penis (F1 Sprague-Dawley rats; [3]) was 134.5 ± 3.0 mg, the LABC (F1 Sprague-Dawley rats; [3]) was 1.6 ± 0.0 g and the Left epididymis (F1 Sprague-Dawley rats; [3]) was 668.1 ± 10.4 mg. For the same compound, the Left testis (F1 Sprague-Dawley rats; [3]) was 1.9 ± 0.0 g, the Liver (F1 Sprague-Dawley rats; [3]) was 20.1 ± 0.4 g and the “Paired Cowper’s glands” value (F1 Sprague-Dawley rats; [3]) was 163.4 ± 5.2 mg. For the same compound, the Paired epididymides (F1 Sprague-Dawley rats; [3]) was 1331.2 ± 21.2 mg, the Paired kidneys (F1 Sprague-Dawley rats; [3]) was 3.4 ± 0.1 g and the Paired seminal vesicles (F1 Sprague-Dawley rats; [3]) was 1.8 ± 0.1 g. It also gave a Paired testes (F1 Sprague-Dawley rats; [3]) of 3.8 ± 0.1 g, a Right cauda (F1 Sprague-Dawley rats; [3]) of 310.5 ± 6.2 mg and a Right corpus/caput (F1 Sprague-Dawley rats; [3]) of 352.6 ± 7.1 mg. The Right epididymis (F1 Sprague-Dawley rats; [3]) was 663.1 ± 11.2 mg, the Right testis (F1 Sprague-Dawley rats; [3]) was 1.9 ± 0.0 g and the Total epididymal sperm (F1 Sprague-Dawley rats; [3]) was 185.8 ± 4.7 106. For the same compound, the Ventral prostate (F1 Sprague-Dawley rats; [3]) was 682.1 ± 32.7 mg, the Visceral adipose tissue (F1 Sprague-Dawley rats; [3]) was 25.8 ± 1.5 g and the Body weight (F1 Sprague-Dawley rats; [4]) was 682.6 ± 13.4 g. The Cauda sperm (F1 Sprague-Dawley rats; [4]) was 160.0 ± 3.4 106, the Corpus/caput sperm (F1 Sprague-Dawley rats; [4]) was 72.0 ± 2.8 106 and the Epididymal adipose tissue (F1 Sprague-Dawley rats; [4]) was 8.2 ± 1.0 g. The Glans penis (F1 Sprague-Dawley rats; [4]) was 135.0 ± 1.5 mg, the LABC (F1 Sprague-Dawley rats; [4]) was 1.5 ± 0.1 g and the Left epididymis (F1 Sprague-Dawley rats; [4]) was 664.2 ± 12.5 mg. The Left testis (F1 Sprague-Dawley rats; [4]) was 1.9 ± 0.0 g, the Liver (F1 Sprague-Dawley rats; [4]) was 20.2 ± 0.4 g and the “Paired Cowper’s glands” value (F1 Sprague-Dawley rats; [4]) was 165.6 ± 9.7 mg. The Paired epididymides (F1 Sprague-Dawley rats; [4]) was 1323.7 ± 24.3 mg, the Paired kidneys (F1 Sprague-Dawley rats; [4]) was 3.4 ± 0.0 g and the Paired seminal vesicles (F1 Sprague-Dawley rats; [4]) was 1.8 ± 0.1 g. The Paired testes (F1 Sprague-Dawley rats; [4]) was 3.8 ± 0.1 g, the Right cauda (F1 Sprague-Dawley rats; [4]) was 309.0 ± 6.0 mg and the Right corpus/caput (F1 Sprague-Dawley rats; [4]) was 350.5 ± 5.9 mg. For the same compound, the Right epididymis (F1 Sprague-Dawley rats; [4]) was 659.5 ± 11.8 mg, the Right testis (F1 Sprague-Dawley rats; [4]) was 1.9 ± 0.0 g and the Total epididymal sperm (F1 Sprague-Dawley rats; [4]) was 185.6 ± 2.0 106. The Ventral prostate (F1 Sprague-Dawley rats; [4]) was 678.7 ± 30.1 mg and the Visceral adipose tissue (F1 Sprague-Dawley rats; [4]) was 26.8 ± 2.4 g.
